System: relapsed or refractory, rituximab-naive or -sensitive follicular B-cell NHL
Assay: Time to progression (TTP), Vc-R vs rituximab study, by biomarker
Format: in vivo, human
Parameters: TTP Median: unit not given here
Description: Non-Hodgkin lymphoma (NHL) encompasses several unique malignant lymphoid disease entities that vary in clinical behavior, morphologic appearance, immunologic, and molecular phenotype. […] A randomized, open-label, active-controlled, multicenter, multinational, prospective study to compare the efficacy and safety of the combination of bortezomib and rituximab (Vc-R) to single-agent rituximab in subjects who have relapsed or refractory, rituximab-naive or -sensitive follicular B-cell NHL was performed.
Subjects were centrally randomized to Treatment Groups A (Vc-R) or B (rituximab) in a 1:1 ratio taking into account the following stratification factors: • Follicular Lymphoma International Prognostic Index (FLIPI) score (low [0 or 1 factor], intermediate [2 factors], high [≧3 factors]); • Prior rituximab therapy (yes, no); • Time since last dose of anti-lymphoma therapy (≦1 year, >1 year); • Region (United States/Canada, European Union, Rest of World).
For single-marker association analyses and pair-wise comparisons, a log rank test and Cox proportional hazard model was utilized for assessments of PFS, TTP, and OS between the treatment groups. Kaplan-Meier curves were utilized to estimate the distribution differences between groups in the time-to-event analyses. Comparison of the response rates between the treatment groups was conducted using the Fishers exact test. Single-marker association analyses were stratified by the covariates.
For pair-wise comparison analysis, biomarker pairs were formed by combinations of two markers. A log rank test was utilized for assessments of PFS, TTP, and OS between the treatment groups in the subpopulation defined by biomarker pairs. Kaplan-Meier curves were utilized to estimate the distribution differences between groups in the time-to-event analyses. Comparison of the response rates between the treatment groups was conducted using the Fishers exact test. Methods of Analysis for the multiple biomarker comparison models can be found in section 4.6.

[1] = 20S % NUCLEAR STAINING: 30-50, 2 Prior Lines of Therapy
[2] = 20S % NUCLEAR STAINING: 60-70, Male
[3] = 20S % POSITIVE CYTOPLASMIC SIGNAL: 0-20, >65 years old
[4] = 20S % POSITIVE CYTOPLASMIC SIGNAL: 95-100, Ann Arbor Stage IV
[5] = 20S INTENSITY CYTOPLASMIC SIGNAL: ≧3+, Male
[6] = CD68 OVERALL POSITIVE: 0-25, 2 Prior Lines of Therapy
[7] = CD68 OVERALL POSITIVE: 0-25, ≦1 year since last anti-lymphoma treatment
[8] = CD68 OVERALL POSITIVE: 26-50, Ann Arbor Stage IV
[9] = CD68 OVERALL POSITIVE: 26-50, High FLIPI Score
[10] = CD68 OVERALL POSITIVE: 26-50, No High Tumor Burden
[11] = CD68 OVERALL POSITIVE: 26-50, Rest of World
[12] = CD68 OVERALL POSITIVE: 26-50, ≦65 years old
[13] = CD68 POSITIVE FOLLICULAR: 0-25, >1 year since last anti-lymphoma treatment
[14] = CD68 POSITIVE FOLLICULAR: 26-50, 1 Prior Line of Therapy
[15] = CD68 POSITIVE FOLLICULAR: 26-50, High FLIPI Score
[16] = CD68 POSITIVE FOLLICULAR: 26-50, No High Tumor Burden
[17] = CD68 POSITIVE FOLLICULAR: 26-50, No Subgroup
[18] = CD68 POSITIVE FOLLICULAR: 26-50, White
[19] = CD68 POSITIVE FOLLICULAR: 26-50, ≦65 years old
[20] = CD68 POSITIVE FOLLICULAR: 51-75, Female
[21] = CD68 POSITIVE PERIFOLLICULAR: 0-25, 2 Prior Lines of Therapy
[22] = CD68 POSITIVE PERIFOLLICULAR: 26-50, Male
[23] = CD68 POSITIVE PERIFOLLICULAR: 26-50, Other
[24] = CD68 POSITIVE PERIFOLLICULAR: >75, 1 Prior Line of Therapy
[25] = CD68 POSITIVE PERIFOLLICULAR: >75, ≦65 years old
[26] = P27 % NUCLEI POSITIVE: 30-50, Ann Arbor Stage IV
[27] = P27 % NUCLEI POSITIVE: 60-70, Intermediate FLIPI Score
[28] = P27 SIGNAL INTENSITY: ≧2+, 4 Prior Lines of Therapy
[29] = P27 SIGNAL INTENSITY: ≧2+, Ann Arbor Stage IV
[30] = P27 SIGNAL INTENSITY: ≧2+, Male
[31] = P27 SIGNAL INTENSITY: ≧2+, ≦65 years old
[32] = P65 % NUCLEAR STAINING: 0, Male
[33] = P65 % NUCLEAR STAINING: 0, No Prior Rituximab Therapy
[34] = P65 % NUCLEAR STAINING: 0, ≦65 years old
[35] = P65 % POSITIVE CYTOPLASMIC SIGNAL: >90%, 1 Prior Line of Therapy
[36] = P65 % POSITIVE CYTOPLASMIC SIGNAL: >90%, >1 year since last anti-lymphoma treatment
[37] = P65 % POSITIVE CYTOPLASMIC SIGNAL: >90%, Ann Arbor Stage IV
[38] = P65 % POSITIVE CYTOPLASMIC SIGNAL: >90%, High FLIPI Score
[39] = P65 % POSITIVE CYTOPLASMIC SIGNAL: >90%, Male
[40] = P65 % POSITIVE CYTOPLASMIC SIGNAL: >90%, No Prior Rituximab Therapy
[41] = P65 % POSITIVE CYTOPLASMIC SIGNAL: >90%, No Subgroup
[42] = P65 % POSITIVE CYTOPLASMIC SIGNAL: >90%, White
[43] = P65 % POSITIVE CYTOPLASMIC SIGNAL: >90%, ≦65 years old
[44] = P65 % POSITIVE CYTOPLASMIC SIGNAL: ≦90%, Intermediate FLIPI Score
[45] = P65 INTENSITY CYTOPLASMIC SIGNAL: ≦1+, Ann Arbor Stage III
[46] = P65 INTENSITY CYTOPLASMIC SIGNAL: ≧2+, High FLIPI Score
[47] = P65 INTENSITY CYTOPLASMIC SIGNAL: ≧2+, ≦65 years old
[48] = PSMB1/A171S: G/G, Ann Arbor Stage IV, IRC review
[49] = PSMB1/A171S: G/G, High Tumor Burden, IRC review

rituximab
TTP Evt/N [1]: 11/13 | TTP Median [1]: 239 | TTP Evt/N [2]: 13/16 | TTP Median [2]: 212 | TTP Evt/N [3]: 5/6 | TTP Median [3]: 278 | TTP Evt/N [4]: 43/56 | TTP Median [4]: 278 | TTP Evt/N [5]: 20/27 | TTP Median [5]: 280 | TTP Evt/N [6]: 6/8 | TTP Median [6]: 142 | TTP Evt/N [7]: 11/18 | TTP Median [7]: 424 | TTP Evt/N [8]: 44/56 | TTP Median [8]: 277 | TTP Evt/N [9]: 36/45 | TTP Median [9]: 277 | TTP Evt/N [10]: 37/54 | TTP Median [10]: 357 | TTP Evt/N [11]: 40/51 | TTP Median [11]: 277 | TTP Evt/N [12]: 57/77 | TTP Median [12]: 278 | TTP Evt/N [13]: 23/34 | TTP Median [13]: 357 | TTP Evt/N [14]: 26/39 | TTP Median [14]: 349 | TTP Evt/N [15]: 31/37 | TTP Median [15]: 205 | TTP Evt/N [16]: 29/44 | TTP Median [16]: 351 | TTP Evt/N [17]: 65/91 | TTP Median [17]: 277 | TTP Evt/N [18]: 53/77 | TTP Median [18]: 334 | TTP Evt/N [19]: 52/67 | TTP Median [19]: 270 | TTP Evt/N (CD68 POSITIVE FOLLICULAR: 51-75, 3 Prior Lines of Therapy): 1/4 | TTP Evt/N [20]: 14/26 | TTP Median [20]: 708 | TTP Evt/N [21]: 7/8 | TTP Median [21]: 70 | TTP Evt/N [22]: 22/30 | TTP Median [22]: 239 | TTP Evt/N [23]: 4/4 | TTP Median [23]: 128 | TTP Evt/N [24]: 13/18 | TTP Median [24]: 275 | TTP Evt/N [25]: 17/23 | TTP Median [25]: 275 | TTP Evt/N [26]: 15/19 | TTP Median [26]: 278 | TTP Evt/N [27]: 6/13 | TTP Median [27]: 513 | TTP Evt/N [28]: 9/15 | TTP Median [28]: 348 | TTP Evt/N [29]: 64/85 | TTP Median [29]: 283 | TTP Evt/N [30]: 52/72 | TTP Median [30]: 280 | TTP Evt/N [31]: 104/153 | TTP Median [31]: 281 | TTP Evt/N [32]: 56/74 | TTP Median [32]: 280 | TTP Evt/N [33]: 77/102 | TTP Median [33]: 322 | TTP Evt/N [34]: 97/138 | TTP Median [34]: 287 | TTP Evt/N [35]: 56/89 | TTP Median [35]: 349 | TTP Evt/N [36]: 77/117 | TTP Median [36]: 357 | TTP Evt/N [37]: 67/87 | TTP Median [37]: 275 | TTP Evt/N [38]: 61/83 | TTP Median [38]: 239 | TTP Evt/N [39]: 54/72 | TTP Median [39]: 271 | TTP Evt/N [40]: 80/112 | TTP Median [40]: 345 | TTP Evt/N [41]: 139/204 | TTP Median [41]: 334 | TTP Evt/N [42]: 119/179 | TTP Median [42]: 345 | TTP Evt/N [43]: 108/154 | TTP Median [43]: 278 | TTP Evt/N [44]: 5/16 | TTP Median [44]: 567 | TTP Evt/N [45]: 7/11 | TTP Median [45]: 204 | TTP Evt/N [46]: 60/80 | TTP Median [46]: 275 | TTP Evt/N [47]: 105/152 | TTP Median [47]: 287 | TTP Evt/N [48]: 95/127 | TTP Median [48]: 278 | TTP Evt/N [49]: 110/147 | TTP Median [49]: 273 | TTP Evt/N (PSMB1/A171S: G/G, ≦65 years old, IRC review): 131/198

Source: patent publication US9322066B2, “Predictors for cancer treatment” (priority 2011, dated 2016)
